Data on seven compounds can be found in DBAASP.

≈ marks a conversion by molar mass, not a printed value. Where “and” joins values, the source holds several entries; their conditions need not be identical. Identical values can stand only once.

Some test systems named below: Enterococcus faecalis A4; Staphylococcus aureus MR; Acinetobacter baumannii; Escherichia coli 078; Escherichia coli K88; Escherichia coli K99; Escherichia coli UB1005; Escherichia coli BL21AI.
Common to all, as to assay: ≥ marks a high value that may be exact or a test limit, other limits are often not marked, values filed in µg/mL are converted to µM
Assay [1] has as its system Bacillus amyloliquefaciens ATCC 23842.
The subject of assay [2] is Bacillus cereus ATCC 14579.
Assay [3] deals with Bacillus licheniformis ATCC 14580.
Assay [4] deals with Bacillus subtilis ATCC 6051.
For assay [5], the system named is Enterococcus faecalis 1F-1.
Assay [6] relates to Enterococcus faecium 4W-9.
In assay [7] the test system is Enterococcus faecium 5F-10.
Assay [8] concerns Escherichia coli ATCC 25922.
Assay [9] relates to Proteus mirabilis ATCC 35659.
For assay [10], the system named is Pseudomonas aeruginosa PAO1.
In assay [11] the test system is Salmonella enterica ATCC H9812.
Assay [12] has as its system Staphylococcus aureus 215.
In assay [13] the test system is Staphylococcus aureus ATCC 29213.
Assay [14] deals with Bacillus cereus CGMCC 1.932.
The subject of assay [15] is Bacillus subtilis CMCC 63501.
For assay [16], the system named is Enterococcus faecalis ATCC 29212.
Assay [17] relates to Listeria monocytogenes CGMCC 1.1075.
Assay [18] deals with Pseudomonas aeruginosa ATCC 27853.
Assay [19] concerns Salmonella enterica subsp. enterica serovar Pullorum ATCC 7913.
Assay [20] concerns Salmonella enterica subsp. enterica serovar Typhimurium ATCC 14028.
The subject of assay [21] is Salmonella typhimurium ATCC 7731.
The subject of assay [22] is Staphylococcus aureus ATCC 25923.
Assay [23] relates to Staphylococcus aureus ATCC 43300.
For assay [24], the system named is Staphylococcus epidermidis ATCC 12228.
The test system of assay [25] is Escherichia coli DH5alpha.
Assay [26] concerns Pseudomonas aeruginosa NBRC 13275.
The subject of assay [27] is Staphylococcus aureus NBRC 13276.
The subject of assay [28] is Candida albicans NBRC 1385.
Assay [29] deals with Cutibacterium acnes JCM 6473.
Assay [30] deals with Porphyromonas gingivalis ATCC 33277.
Assay [31] deals with Streptococcus mutans JCM 5705.
The test system of assay [32] is Acinetobacter baumannii KCTC 2508.
The test system of assay [33] is Bacillus subtilis KCTC 2217.
The subject of assay [34] is Micrococcus luteus DSM 1790.
The subject of assay [35] is Enterococcus faecalis CECT 481.
The subject of assay [36] is Staphylococcus aureus CECT 435.
Assay [37] relates to Streptococcus agalactiae CECT 183T.

In general, MIC refers to the least concentration at which growth counts as inhibited. Low readings indicate a more susceptible organism, high ones a less susceptible organism.

As for `CC(C)C[C@H](NC(=O)[C@H](CC(C)C)NC(=O)[C@@H](N)CCC(=O)O)C(=O)N[C@@H](CO)C(=O)N[C@@H](CCCCN)C(=O)N[C@H](C(=O)N[C@@H](CC(=O)O)C(=O)O)C(C)C` [ELLSKVD], the MIC (in assay [1]; in assay [2]; in [3]; in assay [4]; in [5]; in the assay on Enterococcus faecalis A4) was not below 159 µM in each case. Further, the MIC in [6] was not below 159 µM; in assay [7], not below 159 µM; in assay [8], 79.7 µM (≈ 64 µg/mL); in assay [9], not below 79.7 µM; in assay [10] it was more than 159 µM; in assay [11], not below 159 µM. For the same compound, the minimal inhibitory concentration (MIC) in [12] is not below 79.7 µM; in [13], 79.7 µM (≈ 64 µg/mL); with Staphylococcus aureus MR, not below 79.7 µM.
As for `NCC(=O)N[C@@H](CCCN=C(N)N)C(=O)N[C@@H](Cc1c[nH]c2ccccc12)C(=O)N[C@@H](CCCN=C(N)N)C(=O)N[C@@H](Cc1c[nH]c2ccccc12)C(=O)N[C@@H](Cc1c[nH]c2ccccc12)C(=O)N[C@@H](Cc1c[nH]c2ccccc12)C(=O)N[C@@H](CCCN=C(N)N)C(=O)N[C@@H](Cc1c[nH]c2ccccc12)C(=O)N[C@@H](CCCN=C(N)N)C(=O)N[C@@H](Cc1c[nH]c2ccccc12)C(N)=O` [GRWRWWWRWRW], the MIC against Acinetobacter baumannii was found to be 2 µM (≈ 3.63 µg/mL); in assay [14], 8 µM (≈ 14.5 µg/mL); in assay [15], 8 µM (≈ 14.5 µg/mL); in [16], 2 µM (≈ 3.63 µg/mL); against Escherichia coli 078, 4 µM (≈ 7.26 µg/mL); in the assay with Escherichia coli K88, 2 µM (≈ 3.63 µg/mL). For the same compound, the MIC in the assay on Escherichia coli K99 was determined as 2 µM (≈ 3.63 µg/mL); in the assay with Escherichia coli UB1005, 4 µM (≈ 7.26 µg/mL); in assay [17] it was 2 µM (≈ 3.63 µg/mL); in assay [18] it was 8 µM (≈ 14.5 µg/mL); in assay [10], 4 µM (≈ 7.26 µg/mL); in [19], 2 µM (≈ 3.63 µg/mL). Also, the MIC in assay [20] is 2 µM (≈ 3.63 µg/mL); in assay [21] it was 16 µM (≈ 29.1 µg/mL); in [22], 2 µM (≈ 3.63 µg/mL); in assay [23] it was 2 µM (≈ 3.63 µg/mL); in assay [24] it was 4 µM (≈ 7.26 µg/mL).
Consider `CC(=O)N[C@@H](CCCCN)C(=O)N[C@@H](Cc1ccccc1)C(=O)N[C@@H](CC(C)C)C(=O)N[C@@H](Cc1cnc[nH]1)C(=O)N[C@@H](CO)C(=O)N[C@@H](C)C(=O)N[C@@H](CCCCN)C(=O)N[C@@H](CCCCN)C(=O)N[C@@H](Cc1ccccc1)C(=O)NCC(=O)N[C@@H](CCCCN)C(=O)N[C@@H](C)C(=O)N[C@@H](Cc1ccccc1)C(=O)N[C@H](C(N)=O)C(C)C` [KFLHSAKKFGKAFV], for which the values for the MIC in assay [25], in assay [26] and in assay [27] were not below 200 µM, not below 200 µM and not below 400 µM, respectively.
Turning to `CC[C@H](C)[C@H](NC(=O)[C@H](CCCN=C(N)N)NC(=O)CNC(=O)[C@H](Cc1ccc(O)cc1)NC(=O)[C@H](CCC(N)=O)NC(=O)[C@H](CC(N)=O)NC(=O)[C@@H](N)CCCCN)C(=O)N[C@@H](CCCN=C(N)N)C(=O)N[C@H](C(=O)N[C@@H](CC(C)C)C(=O)N[C@@H](CCC(N)=O)C(=O)N[C@@H](CCCN=C(N)N)C(=O)N[C@@H](Cc1ccccc1)C(=O)N[C@@H](CC(N)=O)C(=O)N[C@@H](CCC(N)=O)C(=O)N[C@@H](CCCN=C(N)N)C(=O)O)C(C)C` [KNQYGRIRVLQRFNQR], the MIC in [28], in [29], in [30] and in assay [31] was not below 1020 µM each time.
Consider `CC(C)C[C@H](NC(=O)[C@H](CCCCN)NC(=O)[C@H](CCCCN)NC(=O)[C@H](CC(C)C)NC(=O)[C@H](CC(C)C)NC(=O)[C@@H]1CCCN1C(=O)[C@H](CCCCN)NC(=O)[C@H](CCCCN)NC(=O)[C@H](CC(C)C)NC(=O)[C@H](CC(C)C)NC(=O)[C@H](CCCCN)NC(=O)[C@H](CCCCN)NC(=O)[C@H](Cc1c[nH]c2ccccc12)NC(=O)[C@@H](N)CCCCN)C(N)=O` [KWKKLLKKPLLKKL], for which the MIC in assay [32] was 12.5 µM (≈ 22 µg/mL); in [33], 3.13 µM (≈ 5.52 µg/mL); in [22], 1.56 µM and > 0.78 µM.
As for `CC[C@H](C)[C@H](NC(=O)[C@H](CCCN=C(N)N)NC(=O)[C@H](CCCN=C(N)N)NC(=O)[C@@H]1CCCN1C(=O)[C@@H]1CCCN1C(=O)[C@@H]1CCCN1C(=O)[C@@H]1CCCN1C(=O)[C@H](CCCN=C(N)N)NC(=O)[C@@H]1CCCN1C(=O)[C@H](CC(C)C)NC(=O)[C@H](Cc1ccc(O)cc1)NC(=O)[C@@H]1CCCN1C(=O)[C@@H]1CCCN1C(=O)[C@H](CCCCN)NC(=O)[C@H](CC(=O)O)NC(=O)[C@@H](N)C(C)C)C(=O)N[C@@H](Cc1ccc(O)cc1)C(=O)N[C@@H](CC(N)=O)C(=O)O` [VDKPPYLPRPPPPRRIYN], the MIC in the assay on Escherichia coli BL21AI was not below 57.5 µM; in assay [34], 28.7 µM (≈ 62.5 µg/mL).
In the case of `CC[C@H](C)[C@H](NC(=O)[C@H](CC(C)C)NC(=O)[C@@H](NC(=O)[C@@H](NC(=O)[C@@H]1CCCN1C(=O)[C@H](CS)NC(=O)[C@H](CO)NC(=O)CNC(=O)[C@@H]1CCCN1C(=O)[C@H](CCCCN)NC(=O)[C@@H](NC(=O)[C@H](CO)NC(=O)[C@@H](NC(=O)[C@@H]1CCCN1C(=O)CNC(=O)[C@H](CCCCN)NC(=O)[C@@H](NC(=O)[C@@H]1CCCN1C(=O)[C@H](CCC(=O)O)NC(=O)[C@H](CCC(N)=O)NC(=O)[C@H](C)NC(=O)[C@H](CCCCN)NC(=O)[C@@H](N)C(C)C)C(C)C)C(C)C)[C@@H](C)O)[C@@H](C)CC)[C@@H](C)CC)C(=O)N[C@@H](CCCN=C(N)N)C(=O)N[C@@H](CS)C(=O)N[C@@H](C)C(=O)O` [VKAQEPVKGPVSTKPGSCPIILIRCA], the MIC was not below 47.5 µM in [35], not below 47.5 µM in assay [36], not below 47.5 µM in the assay on Staphylococcus aureus MR and not below 95.1 µM in assay [37].
